Test results reported in PMC10585773, “Green synthesis of highly functionalized heterocyclic bearing pyrazole moiety for cancer-targeted chemo/radioisotope therapy” (BMC Chemistry, 2023).

Columns and labels:
[1] = tested on: HepG2; assay: MTT assay, in-vitro cytotoxicity against HepG2; type: cell-based; conditions: Homo sapiens, HepG2 hepatocellular carcinoma cells, scale: 1–10 very strong, 11–20 strong, 21–50 moderate, 51–100 weak, above 100 non-cytotoxic
Text: (§1) Hepatocellular carcinoma (HepG2), and colorectal carcinoma (HCT-116). The cell lines were obtained from ATCC via Holding company for biological products and vaccines (VACSERA), Cairo, Egypt.
(§2) The reagents RPMI-1640 medium, MTT and DMSO (sigma co., St. Louis, USA), Fetal Bovine serum (GIBCO, UK). 5-Fluorouracil was used as a standard anticancer drug for comparison.
(§3) HepG2 and (HCT-116 were used to determine the inhibitory effects of compounds on cell growth using the MTT assay. The relative cell viability in percentage was calculated as (A570 of treated samples/A570 of untreated sample) X 100.

[2] = tested on: HCT-116; assay: MTT assay, in-vitro cytotoxicity against HCT-116; type: cell-based; conditions: Homo sapiens, HCT-116 colorectal carcinoma cells, scale: 1–10 very strong, 11–20 strong, 21–50 moderate, 51–100 weak, above 100 non-cytotoxic
Text: as §1, §2, §3

## N#Cc1c(N)nc2c(c(-c3ccccc3)nn2-c2ccccc2)c1N [Compound 2, 4,6-Diamino-1,3-diphenyl-1H-pyrazolo[3,4-b]pyridine-5-carbonitrile]
[1]
  IC50: 9.2 ± 2.8 µM
[2]
  IC50: 7.7 ± 1.8 µM

## NC(=O)c1c(N)nc2c(c(-c3ccccc3)nn2-c2ccccc2)c1N [Compound 3, 4,6-Diamino-1,3-diphenyl-1H-pyrazolo[3,4-b]pyridine-5-carboxamide]
[1]
  IC50: 22.8 ± 2.1 µM
[2]
  IC50: 29.4 ± 2.3 µM

## Nc1c(C(=O)O)[nH]c2c1c(-c1ccccc1)nn2-c1ccccc1 [Compound 4, 4-Amino-1,3-diphenyl-1,6-dihydropyrrolo[2,3-c]pyrazole-5-carboxylic acid]
[1]
  IC50: 14.5 ± 2.8 µM
[2]
  IC50: 15.2 ± 2.4 µM

## Nc1n[nH]c2c1c(-c1ccccc1)nn2-c1ccccc1 [Compound 5, 4,6-Diphenyl-1,6-dihydropyrazolo[3,4-c]pyrazol-3-amine]
[1]
  IC50: 8.8 ± 5.1 µM
[2]
  IC50: 13.8 ± 3.9 µM

## O=c1[nH]cc(F)c(=O)[nH]1 [Compound 5-Fu, 5-Fluorouracil, reference compound]
[1]
  IC50: 7.86 ± 0.5 µM
[2]
  IC50: 5.35 ± 0.3 µM

## Nc1nc(=O)[nH]c2c1c(-c1ccccc1)nn2-c1ccccc1 [Compound 6, 4-Amino-1,3-diphenyl-1,7-dihydro-6H-pyrazolo[3,4-d]pyrimidin-6-one]
[1]
  IC50: 91.4 ± 4.2 µM
[2]
  IC50: 51 ± 2.7 µM

## Nc1nc(=S)[nH]c2c1c(-c1ccccc1)nn2-c1ccccc1 [Compound 7, 4-Amino-1,3-diphenyl-1,7-dihydro-6H-pyrazolo[3,4-d]pyrimidine-6-thione]
[1]
  IC50: 10.2 ± 2.1 µM
[2]
  IC50: 13.1 ± 2.3 µM

## CCOc1nc(-c2ccccc2)nc2c1c(-c1ccccc1)nn2-c1ccccc1 [Compound 8, 4-Ethoxy-1,3,6-triphenyl-1H-pyrazolo[3,4-d]pyrimidine]
[1]
  IC50: 12.1 ± 5.1 µM
[2]
  IC50: 17.4 ± 3.9 µM

## Nc1nc(-c2c(-c3ccccc3)nn(-c3ccccc3)c2N)nc2c1c(-c1ccccc1)nn2-c1ccccc1 [Compound 9, 6-(5-Amino-1,3-diphenyl-1H-pyrazol-4-yl)-1,3-diphenyl-1H-pyrazolo[3,4-d]pyrimidin-4-amine]
[1]
  IC50: 55.7 ± 2.7 µM
[2]
  IC50: 33.6 ± 2.1 µM
